Laboratory results reported in patent publication US10273226B2, “Pyrazolyl-heteroarylamides as pesticides” (Bayer Animal Health GmbH, priority 2014, dated 2019).

Tested on: Lucilia cuprina
Assay: Lucilia cuprina test
Assay type: in vivo
Conditions: application rate 100 ppm; L1 larvae; after 2 days
Experimental: (§1) Solvent: dimethyl sulphoxide
To produce an appropriate active ingredient formulation, 10 mg of active ingredient are mixed with 0.5 ml of dimethyl sulphoxide, and the concentrate is diluted with water to the desired concentration.
About 20 L1 larvae of the Australian sheep blowfly (Lucilia cuprina) are transferred into a test vessel containing minced horsemeat and the active ingredient preparation of the desired concentration.
After 2 days, the kill in % is determined. 100% means that all the larvae have been killed and 0% means that none of the larvae have been killed.

Structure (SMILES)	efficacy (kill in %)
Cn1nc(C(F)(F)C(F)(F)F)c(C(F)(F)F)c1-n1cc(-c2ccc(F)c(NC(=O)Cc3cccc(F)c3)c2)cn1 [Example 1-121]	100%
Cc1ccc(C(=O)Nc2cc(-c3cnn(-c4c(C(F)(F)F)c(C(F)(F)C(F)(F)F)nn4C)c3)ccc2F)s1 [Example 1-069]	100%
CC(C)C(C)(C)C(=O)Nc1cc(-c2cnn(-c3c(C(F)(F)F)c(C(F)(F)C(F)(F)F)nn3C)c2)ccc1F [Example 1-065]	80%
Cn1nc(C(F)(F)C(F)(F)F)c(C(F)(F)F)c1-n1cc(-c2ccc(F)c(NC(=O)C(C)(C)C)c2)cn1 [Example 1-078]	100%

Tested on: Ctenocephalides felis
Assay: Ctenocephalides felis in vitro contact test with adult cat fleas
Assay type: in vivo
Conditions: application rate 5 μg/cm^2 (500 g/ha); after 48 h; fleas dead or moribund
Experimental: Ctenocephalides felis—In Vitro Contact Tests with Adult Cat Fleas
(§2) For the coating of the test tubes, 9 mg of active ingredient are first dissolved in 1 ml of acetone p.a. and then diluted to the desired concentration with acetone p.a. 250 μl of the solution are distributed homogeneously on the inner walls and base of a 25 ml test tube by turning and rocking on an orbital shaker (rocking rotation at 30 rpm for 2 h). With 900 ppm active ingredient solution and internal surface 44.7 cm^2, given homogeneous distribution, an area-based dose of 5 μg/cm^2 is achieved.
After the solvent has evaporated off, the tubes are populated with 5-10 adult cat fleas (Ctenocephalides felis), sealed with a perforated plastic lid and incubated in a horizontal position at room temperature and ambient humidity. After 48 h, efficacy is determined. To this end, the test tubes are stood upright and the fleas are knocked to the base of the tube. Fleas which remain motionless at the base or move in an uncoordinated manner are considered to be dead or moribund.
100% efficacy means that all the fleas were dead or moribund. 0% efficacy means that no fleas were harmed.

Structure (SMILES)	efficacy
Cc1ccc(C(=O)Nc2cc(-c3cnn(-c4c(C(F)(F)F)c(C(F)(F)C(F)(F)F)nn4C)c3)ccc2F)s1 [Example 1-069]	100%

Tested on: Boophilus microplus
Assay: Boophilus microplus injection test
Assay type: in vivo
Conditions: application rate 20 μg/animal; injection into abdomen; assessed after 7 days
Experimental: Boophilus microplus—Injection Test
as §1
To produce an appropriate active ingredient formulation, 10 mg of active ingredient are mixed with 0.5 ml of solvent and the concentrate is diluted with solvent to the desired concentration.
1 μl of the active ingredient solution is injected into the abdomen of 5 engorged adult female cattle ticks (Boophilus microplus). The animals are transferred into dishes and kept in a climate-controlled room.
Efficacy is assessed after 7 days by laying of fertile eggs. Eggs which are not visibly fertile are stored in a climate-controlled cabinet until the larvae hatch after about 42 days. An efficacy of 100% means that none of the ticks has laid any fertile eggs; 0% means that all the eggs are fertile.

Structure (SMILES)	efficacy (laying of fertile eggs)
Cn1nc(C(F)(F)C(F)(F)F)c(C(F)(F)F)c1-n1cc(-c2ccc(F)c(NC(=O)Cc3cccc(F)c3)c2)cn1 [Example 1-121]	100%
Cc1ccc(C(=O)Nc2cc(-c3cnn(-c4c(C(F)(F)F)c(C(F)(F)C(F)(F)F)nn4C)c3)ccc2F)s1 [Example 1-069]	100%
CC(C)C(C)(C)C(=O)Nc1cc(-c2cnn(-c3c(C(F)(F)F)c(C(F)(F)C(F)(F)F)nn3C)c2)ccc1F [Example 1-065]	100%
Cn1nc(C(F)(F)C(F)(F)F)c(C(F)(F)F)c1-n1cc(-c2ccc(F)c(NC(=O)C(C)(C)C)c2)cn1 [Example 1-078]	100%

Tested on: Rhipicephalus sanguineus
Assay: Rhipicephalus sanguineus in vitro contact test with adult brown dog ticks
Assay type: in vivo
Conditions: application rate 5 μg/cm^2 (500 g/ha); after 48 h; ticks dead or moribund
Experimental: Rhipicephalus sanguineus—In Vitro Contact Tests with Adult Brown Dog Ticks
as §2
After the solvent has evaporated off, the tubes are populated with 5-10 adult dog ticks (Rhipicephalus sanguineus), sealed with a perforated plastic lid and incubated in a horizontal position in the dark at room temperature and ambient humidity. After 48 h, efficacy is determined. To this end, the ticks are knocked to the floor of the tube and incubated on a hotplate at 45-50° C. for not more than 5 min. Ticks which remain motionless on the floor or move in such an uncoordinated manner that they are unable to deliberately avoid the heat by climbing upwards are considered to be dead or moribund.
An efficacy of 100% means that all the ticks were dead or moribund. 0% efficacy means that none of the ticks had been harmed.

Structure (SMILES)	efficacy
Cn1nc(C(F)(F)C(F)(F)F)c(C(F)(F)F)c1-n1cc(-c2ccc(F)c(NC(=O)Cc3cccc(F)c3)c2)cn1 [Example 1-121]	100%
Cc1ccc(C(=O)Nc2cc(-c3cnn(-c4c(C(F)(F)F)c(C(F)(F)C(F)(F)F)nn4C)c3)ccc2F)s1 [Example 1-069]	100%
Cn1nc(C(F)(F)C(F)(F)F)c(C(F)(F)F)c1-n1cc(-c2ccc(F)c(NC(=O)C(C)(C)C)c2)cn1 [Example 1-078]	100%

Tested on: Ctenocephalides felis
Assay: Ctenocephalides felis oral test
Assay type: in vivo
Conditions: application rate 100 ppm in citrated cattle blood; after 2 days
Experimental: Ctenocephalides felis—Oral Test
as §1
For the purpose of producing an appropriate active ingredient formulation, 10 mg of active ingredient are mixed with 0.5 ml of dimethyl sulphoxide. Dilution with citrated cattle blood gives the desired concentration.
About 20 unfed adult cat fleas (Ctenocephalides felis) are placed into a chamber which is closed at the top and bottom with gauze. A metal cylinder whose bottom end is closed with parafilm is placed onto the chamber. The cylinder contains the blood/active ingredient preparation, which can be imbibed by the fleas through the parafilm membrane.
After 2 days, the kill in % is determined. 100% means that all of the fleas have been killed; 0% means that none of the fleas have been killed.

Structure (SMILES)	efficacy (kill in %)
Cn1nc(C(F)(F)C(F)(F)F)c(C(F)(F)F)c1-n1cc(-c2ccc(F)c(NC(=O)Cc3cccc(F)c3)c2)cn1 [Example 1-121]	100%
Cc1ccc(C(=O)Nc2cc(-c3cnn(-c4c(C(F)(F)F)c(C(F)(F)C(F)(F)F)nn4C)c3)ccc2F)s1 [Example 1-069]	100%
CC(C)C(C)(C)C(=O)Nc1cc(-c2cnn(-c3c(C(F)(F)F)c(C(F)(F)C(F)(F)F)nn3C)c2)ccc1F [Example 1-065]	90%
Cn1nc(C(F)(F)C(F)(F)F)c(C(F)(F)F)c1-n1cc(-c2ccc(F)c(NC(=O)C(C)(C)C)c2)cn1 [Example 1-078]	80%

Tested on: Spodoptera frugiperda
Assay: Spodoptera frugiperda spray test
Assay type: in vivo
Conditions: application rate 100 g/ha; caterpillars; after 7 days
Experimental: Spodoptera frugiperda—Spray Test
(§3) To produce an appropriate active ingredient formulation, 1 part by weight of active ingredient is dissolved using the specified parts by weight of solvent and made up with water containing an emulsifier concentration of 1000 ppm until the desired concentration is attained. To produce further test concentrations, the preparation is diluted with emulsifier-containing water.
Leaf discs of maize (Zea mays) are sprayed with an active ingredient formulation of the desired concentration and, after drying, populated with caterpillars of the armyworm (Spodoptera frugiperda).
After 7 days, efficacy in % is determined. 100% means that all the caterpillars have been killed; 0% means that no caterpillars have been killed.

Structure (SMILES)	efficacy
Cn1nc(C(F)(F)C(F)(F)F)c(C(F)(F)F)c1-n1cc(-c2ccc(F)c(NC(=O)Cc3cccc(F)c3)c2)cn1 [Example 1-121]	100%
Cc1ccc(C(=O)Nc2cc(-c3cnn(-c4c(C(F)(F)F)c(C(F)(F)C(F)(F)F)nn4C)c3)ccc2F)s1 [Example 1-069]	100%
Cn1nc(C(F)(F)C(F)(F)F)c(C(F)(F)F)c1-n1cc(-c2ccc(F)c(NC(=O)C(C)(C)C)c2)cn1 [Example 1-078]	100%

Tested on: Tetranychus urticae
Assay: Tetranychus urticae spray test, OP-resistant
Assay type: in vivo
Conditions: application rate 100 g/ha; after 6 days
Experimental: Tetranychus urticae—Spray Test, OP-Resistant
as §3
Discs of bean leaves (Phaseolus vulgaris) infested by all stages of the greenhouse red spider mite (Tetranychus urticae) are sprayed with an active ingredient formulation of the desired concentration.
After 6 days, efficacy in % is determined. 100% means that all the spider mites have been killed; 0% means that none of the spider mites have been killed.

Structure (SMILES)	efficacy
Cn1nc(C(F)(F)C(F)(F)F)c(C(F)(F)F)c1-n1cc(-c2ccc(F)c(NC(=O)Cc3cccc(F)c3)c2)cn1 [Example 1-121]	100%
Cc1ccc(C(=O)Nc2cc(-c3cnn(-c4c(C(F)(F)F)c(C(F)(F)C(F)(F)F)nn4C)c3)ccc2F)s1 [Example 1-069]	90%
CC(C)C(C)(C)C(=O)Nc1cc(-c2cnn(-c3c(C(F)(F)F)c(C(F)(F)C(F)(F)F)nn3C)c2)ccc1F [Example 1-065]	100%
Cn1nc(C(F)(F)C(F)(F)F)c(C(F)(F)F)c1-n1cc(-c2ccc(F)c(NC(=O)C(C)(C)C)c2)cn1 [Example 1-078]	100%

Tested on: Phaedon cochleariae
Assay: Phaedon cochleariae spray test
Assay type: in vivo
Conditions: application rate 100 g/ha; larvae; after 7 days
Experimental: Phaedon cochleariae—Spray Test
as §3
Discs of Chinese cabbage leaves (Brassica pekinensis) are sprayed with an active ingredient formulation of the desired concentration and, after drying, populated with larvae of the mustard beetle (Phaedon cochleariae).
After 7 days, efficacy in % is determined. 100% means that all the beetle larvae have been killed; 0% means that no beetle larvae have been killed.

Structure (SMILES)	efficacy
Cn1nc(C(F)(F)C(F)(F)F)c(C(F)(F)F)c1-n1cc(-c2ccc(F)c(NC(=O)Cc3cccc(F)c3)c2)cn1 [Example 1-121]	100%
Cc1ccc(C(=O)Nc2cc(-c3cnn(-c4c(C(F)(F)F)c(C(F)(F)C(F)(F)F)nn4C)c3)ccc2F)s1 [Example 1-069]	100%
